# Source: patent publication US10315992B2, “Tetracyline compounds” (Tetraphase Pharmaceuticals, Inc., priority 2012, dated 2019)
# Read-outs that look alike come from different tables or passages of the source.
# System: Burkholderia cenocepacia BC240 (cystic fibrosis isolate, MDR)
# Experiment: MIC assay, BC240
# Format: cell-based
# Details: for MIC BC 240: B. cenocepacia MDR; for MIC: Burkholderia cenocepacia
Structure (SMILES),MIC BC 240 (Table 5) [µg/mL],MIC BC 240 (Table 7) [µg/mL],MIC [µg/mL],MIC (read-out: MIC BC 240) [µg/mL]
"CN(C)[C@@H]1C(O)=C(C(N)=O)C(=O)[C@@]2(O)C(O)=C3C(=O)c4c(O)cccc4C[C@H]3C[C@@H]12 [Sancycline, sancycline]",4,4,4,4
"CN(C)c1cc(NC(=O)CNC(C)(C)C)c(O)c2c1C[C@H]1C[C@H]3[C@H](N(C)C)C(O)=C(C(N)=O)C(=O)[C@@]3(O)C(O)=C1C2=O [Tigecycline, tigecycline]",16,16,16,16
